The text below walks through data of patent US10544186B2, “Process for the synthesis of amide bonds with the aid of novel catalysts” (Merck Patent GmbH, priority 2016, dated 2020).

Counter-ions that a name gives are not always drawn. Like-named read-outs stand apart in the source and are kept apart here.

Series [1] is described as follows: Solubility of the amide linking reagents in organic solvents. It counts as physicochemical. To be noted: for solubility: organic solvent or mixture, thermodynamic from solid. The procedure:
All solubility determinations are carried out in a tared gas-tight 4 ml bottle with magnetic stirrer bar. The amide linking reagent (at least 5 mg) is weighed out and a certain amount of the solvent to be investigated is added. The mixture is stirred for 2-5 minutes. If undissolved solid is still present, solvent (50-100 μl) is additionally added, and the mixture is stirred again. As soon as a clear solution is present, the experiment is terminated.

[2] abbreviates: solvent 9CH2Cl2:1CH3CN, read-out: solubility in 9CH2Cl2:1CH3CN.
[3] abbreviates: solvent CH2Cl2, read-out: solubility in CH2Cl2.
The mark [4] stands for this setting: solvent CH3CN, read-out: solubility in CH3CN.
Where [5] appears, read: solvent DMF, read-out: solubility in DMF.
Setting [6] is: solvent Hexane, read-out: solubility in Hexane.
The mark [7] stands for this setting: solvent THF, read-out: solubility in THF.
The mark [8] stands for this setting: solvent Toluene, read-out: solubility in Toluene.

For orientation: melting point means the temperature, or range, at which the solid turns liquid. As for `[O-][n+]1nn(C(N2CCCC2)=[N+]2CCCC2)c2ccccc21` (as salt: phosphate) [BPyU-FAP, 1-(Pyrrolidino(pyrrolidinium-1-ylidene)methyl)-1H-benzo[d]-1,2,3-triazole 3-oxide tris(pentafluoroethyl)trifluorophosphate], the melting point is 173 °C (dec.).
Regarding “(7-Azabenzotriazol-1-yloxy)tris(pyrrolidino)phosphonium tris(pentafluoroethyl)trifluorophosphate [PyAOP-FAP]”, the “solubility in 9CH2Cl2:1CH3CN” value in series [1] (solvent 9CH2Cl2:1CH3CN) is >2000 mg/mL. Further, the “solubility in CH2Cl2” value in series [1] (solvent CH2Cl2) is >2000 mg/mL. Besides, the “solubility in CH3CN” value in series [1] (solvent CH3CN) was >2000 mg/mL. Also, the “solubility in DMF” value in series [1] (solvent DMF) is >2000 mg/mL. Further, the “solubility in Hexane” value in series [1] (solvent Hexane) is <1.2 mg/mL. For the same compound, the “solubility in THF” value in series [1] (solvent THF) is >2000 mg/mL.
Consider “O-(3,4-Dihydro-4-oxo-1,2,3-benzotriazin-3-yl)-N,N,N,N′-tetramethyluronium tris(pentafluoroethyl)trifluorophosphate [DBTU-FAP]”, for which, in series [1] (solvent 9CH2Cl2:1CH3CN), the “solubility in 9CH2Cl2:1CH3CN” value is 480 mg/mL. Further, in series [1] (solvent CH2Cl2), the “solubility in CH2Cl2” value was >780 mg/mL. The “solubility in CH3CN” value in series [1] (solvent CH3CN) was >860 mg/mL. Further, in series [1] (solvent DMF), the “solubility in DMF” value is >1125 mg/mL. Besides, the “solubility in Hexane” value in series [1] (solvent Hexane) was <1.2 mg/mL. Further, the “solubility in THF” value in series [1] (solvent THF) is >780 mg/mL. For the same compound, the “solubility in Toluene” value in series [1] (solvent Toluene) is <1.2 mg/mL.
A word on the solubility: it is the concentration that dissolves in the medium under given conditions. As to `[O-][n+]1nn(C(N2CCCC2)=[N+]2CCCC2)c2ccccc21` [BPyU-FAP, 1-(Pyrrolidino(pyrrolidinium-1-ylidene)methyl)-1H-benzo[d]-1,2,3-triazole 3-oxide tris(pentafluoroethyl)trifluorophosphate], the solubility in series [1] (setting [2]) is 190 mg/mL; in series [1] (setting [3]), 57 mg/mL; in series [1] (setting [4]), > 1020 mg/mL; in series [1] (setting [5]), > 1100 mg/mL; in series [1] (setting [6]), < 1.2 mg/mL; in series [1] (setting [7]) it was 510 mg/mL. In addition, in series [1] (setting [8]), the solubility is < 1.2 mg/mL.
For the compound `CN(C)C(On1nnc2ccccc2c1=O)=[N+](C)C.F[B-](F)(F)F` [HDBTU, O-(3,4-dihydro-4-oxo-1,2,3-benzotriazin-3-yl)-N,N,N′,N′-tetramethyluronium tetrafluoroborate, reference compound], the solubility in series [1] (setting [2]) was 17 mg/mL; in series [1] (setting [3]), 3.75 mg/mL; in series [1] (setting [4]), 240 mg/mL; in series [1] (setting [5]) it was 250 mg/mL; in series [1] (setting [6]), < 1.2 mg/mL; in series [1] (setting [7]), < 3.3 mg/mL. Further, the solubility in series [1] (setting [8]) was < 1.2 mg/mL.
For `F[P-](F)(F)(F)(F)F.[O-][n+]1nn(C(N2CCCC2)=[N+]2CCCC2)c2ccccc21` [HBPyU, 1-(pyrrolidino(pyrrolidinium-1-ylidene)methyl)-1H-benzo-[d][1,2,3]triazole 3-oxide hexafluorophosphate, reference compound], the solubility in series [1] (setting [2]) is 118 mg/mL; in series [1] (setting [3]), 68.3 mg/mL; in series [1] (setting [4]), 510 mg/mL; in series [1] (setting [5]) it was 540 mg/mL; in series [1] (setting [6]) it was < 1.2 mg/mL; in series [1] (setting [7]) it was < 3.3 mg/mL. The solubility in series [1] (setting [8]) is < 1.2 mg/mL.
For the compound “1-(Dimethylamino(dimethylammonium-1-yliden)methyl)-1H-azabenzo-[d][1,2,3]triazole 3-oxide tris(pentafluoroethyl)trifluorophosphate [ATU-FAP]”, in series [1] (solvent 9CH2Cl2:1CH3CN), the “solubility in 9CH2Cl2:1CH3CN” value was found to be 67 mg/mL. In series [1] (solvent CH2Cl2), the “solubility in CH2Cl2” value was <1.2 mg/mL. In series [1] (solvent CH3CN), the “solubility in CH3CN” value was >2000 mg/mL. Further, in series [1] (solvent DMF), the “solubility in DMF” value is >2000 mg/mL. Moreover, the “solubility in Hexane” value in series [1] (solvent Hexane) is <1.2 mg/mL. For the same compound, the “solubility in THF” value in series [1] (solvent THF) is 670 mg/mL. Moreover, the “solubility in Toluene” value in series [1] (solvent Toluene) was <1.2 mg/mL.
As to “(Benzotriazol-1-yloxy)tris(dimethylamino)phosphonium tris(pentafluoroethyl)trifluorophosphate [BOP-FAP]”, the “solubility in 9CH2Cl2:1CH3CN” value in series [1] (solvent 9CH2Cl2:1CH3CN) is >800 mg/mL. Moreover, the “solubility in CH2Cl2” value in series [1] (solvent CH2Cl2) was >1040 mg/mL. Also, the “solubility in CH3CN” value in series [1] (solvent CH3CN) is >700 mg/mL. Moreover, in series [1] (solvent DMF), the “solubility in DMF” value was >1100 mg/mL. In series [1] (solvent Hexane), the “solubility in Hexane” value is <1.2 mg/mL. Besides, the “solubility in THF” value in series [1] (solvent THF) was >1200 mg/mL. In addition, the “solubility in Toluene” value in series [1] (solvent Toluene) is <1.2 mg/mL.
On to `CCOC(=O)/C(C#N)=N/OC(N1CCOCC1)=[N+](C)C` [COMU-FAP, (1-Cyano-2-ethoxy-2-oxoethylideneaminooxy)dimethylaminomorpholinocarbenium tris(pentafluoroethyl)trifluorophosphate], for which the “solubility in the nonpolar solvents hexane and toluene compared with the BF4/PF6 analogue” value in series [1] (hexane and toluene) was “solubility improvement”. Also, the solubility in series [1] (setting [2]) was > 2000 mg/mL; in series [1] (setting [3]) it was 180 mg/mL; in series [1] (setting [4]) it was 905 mg/mL; in series [1] (setting [5]), > 1500 mg/mL; in series [1] (setting [6]), 2.1 mg/mL; in series [1] (setting [7]), 349 mg/mL. Also, the solubility in series [1] (setting [8]) was 4.5 mg/mL.
As for `CN(C)C(ON1C(=O)CCC1=O)=[N+](C)C.F[B-](F)(F)F` [TSTU, O—(N-succinimidyl)-N,N,N′,N′-tetramethyluronium tetrafluoroborate, reference compound], the “solubility in 9CH2Cl2:1CH3CN” value in series [1] (solvent 9CH2Cl2:1CH3CN) came to 2.9 mg/mL. In series [1] (solvent CH2Cl2), the “solubility in CH2Cl2” value was <1.2 mg/mL. Moreover, in series [1] (solvent CH3CN), the “solubility in CH3CN” value is 265 mg/mL. For the same compound, in series [1] (solvent DMF), the “solubility in DMF” value came out at 220 mg/mL. Besides, the “solubility in Hexane” value in series [1] (solvent Hexane) is <1.2 mg/mL. Further, the “solubility in THF” value in series [1] (solvent THF) was <1.2 mg/mL. Further, the “solubility in Toluene” value in series [1] (solvent Toluene) is <1.2 mg/mL.
For `CN(C)[P+](On1nnc2ccccc21)(N(C)C)N(C)C.F[P-](F)(F)(F)(F)F` [BOP, (benzotriazol-1-yloxy)tris(dimethylamino)phosphonium hexafluorophosphate, reference compound], the solubility was > 335 mg/mL in series [1] (setting [2]); > 380 mg/mL in series [1] (setting [3]); 510 mg/mL in series [1] (setting [4]); 660 mg/mL in series [1] (setting [5]); < 1.2 mg/mL in series [1] (setting [6]); < 4.2 mg/mL in series [1] (setting [7]). For the same compound, the solubility in series [1] (setting [8]) is < 1.2 mg/mL.
For the compound `F[P-](F)(F)(F)(F)F.c1cnc2c(c1)nnn2O[P+](N1CCCC1)(N1CCCC1)N1CCCC1` [PyAOP, (7-azabenzotriazol-1-yloxy)tris(pyrrolidino)phosphonium hexafluorophosphate, reference compound], the solubility in series [1] (setting [2]) is 670 mg/mL; in series [1] (setting [3]), 1000 mg/mL; in series [1] (setting [4]) it was 1000 mg/mL; in series [1] (setting [5]) it was 670 mg/mL; in series [1] (setting [6]) it was < 1.2 mg/mL; in series [1] (setting [7]), 6 mg/mL. For the same compound, the solubility in series [1] (setting [8]) is < 1.2 mg/mL.
For “1-(Dimethylamino(dimethylammonium-1-ylidene)methyl)-1H-benzo[d]-1,2,3-triazole 3-oxide tris(pentafluoroethyl)trifluorophosphate [BTU-FAP]”, the “solubility in 9CH2Cl2:1CH3CN” value in series [1] (solvent 9CH2Cl2:1CH3CN) was found to be 120 mg/mL. Further, the “solubility in CH2Cl2” value in series [1] (solvent CH2Cl2) came to 6.9 mg/mL. In addition, the “solubility in CH3CN” value in series [1] (solvent CH3CN) was >1040 mg/mL. Also, the “solubility in DMF” value in series [1] (solvent DMF) was >1200 mg/mL. For the same compound, in series [1] (solvent Hexane), the “solubility in Hexane” value is <1.2 mg/mL. The “solubility in THF” value in series [1] (solvent THF) was found to be 364 mg/mL. Besides, the “solubility in Toluene” value in series [1] (solvent Toluene) was <1.2 mg/mL.
